Reference: patent publication US4049829A, “Sulphur containing hydroxy aliphatic compounds” (Societe anonyme dite: Laboratoire L. Lafon, priority 1974, dated 1977)
Structures can show the parent of a compound that is named as a salt.

How the values were obtained:
mice = experiment: Acute toxicity by oral dose, mice; type: in vivo
Description: (§1) The product is not toxic. The experiments relating to acute toxicity by oral dose for mice and rats have given evidence that there is no mortality amongst animals treated up to a dose of 5 g/kg.

[1] = Human therapeutics: patients suffering from hyperlipaemia and hypercholesterolaemia; type: in vivo
[2] = Solubility (stated with the preparation); type: physicochemical
[3] = Experimental standard II: normal rats, five days oral treatment; type: in vivo, normal male Wistar rats; details: oral dose of 20 mg/kg, vs untreated normal rats
Description: The hypolipaemiant properties of the CRL 40 122 have been studied in rats according to two different standard experiments: A study on normal Wistar rats (standard II). The experiment was carried out over five days on normal male Wistar rats. The animals, numbering 8 per dose of the product to be studied, were treated orally daily, the last feed taking place 3 hours before the animals were killed. Each series was divided into two groups of animals: one group killed after 3 days of experiment; the other group killed after 5 days of experiment. The results were determined by comparison with 8 normal rats subjected to the same experimental conditions and not treated.

[4] = Overall activity from both experimental standards I and II; type: in vivo, Wistar rats; details: for product activity: of the order of
Description: The hypolipaemiant properties of the CRL 40 122 have been studied in rats according to two different standard experiments:
The experiment was conducted for two weeks on Wistar rats, subjected to a daily hyperlipidic diet at the dose of about 20 g for an animal of 150 g in average.
The activity of the product studied was determined by comparison with normal control groups of rats and with groups of rats subjected to a hyperlipidic diet and not treated. For each dose of CRL 40 122 there were three groups of five animals each (control group, group only receiving the hyperlipidic diet, and treated group). The results obtained correspond to the average of each of the series. A very interesting activity of CRL 40 122 appeared at active doses of 10 mg to 50 mg/kg in rats subjected to a hyperlipidic diet (decrease from 64 to 34% of the rate of blood lipids according to dose; decrease of cholesterol from 68 to 41%).
The experiment was carried out over five days on normal male Wistar rats. The animals, numbering 8 per dose of the product to be studied, were treated orally daily, the last feed taking place 3 hours before the animals were killed. Each series was divided into two groups of animals: one group killed after 3 days of experiment; the other group killed after 5 days of experiment.
The results were determined by comparison with 8 normal rats subjected to the same experimental conditions and not treated.
Overall these tests led to the following conclusions:
1. The two experimental standards, although very different give rise to a product activity of the order of: […]

rats = experiment: Acute toxicity by oral dose, rats; type: in vivo; details: up to a dose of 5 g/kg
Description: as §1

[5] = Hypolipidic activity in rats on hyperlipidic diet (Table IV); type: in vivo; set-up: Burstein Test: unit not given here; details: for Total Cholesterol / Total Lipids / Burstein Test, % inhibition / Total Cholesterol, % inhibition / Total Lipids, % inhibition / Burstein Test: Table IV; for Burstein Test, % inhibition / Total Cholesterol, % inhibition / Total Lipids, % inhibition: normal = 100%, hyperlipidic = 0%
Description: In Table IV below the following results have been obtained.
A -- in rats receiving a normal diet (percentage inhibition = 100%);
B -- in rats receiving a hyperlipidic diet (percentage inhibition = 0%);
C -- in rats receiving the same hyperlipidic diet B with a daily dose of 0.1 g/kg of a reference normolipidemiant LIPAVLON [ethyl-2-(p-chlorophenoxy)-2-methylpropionate; International name: CLOFIBRATE];
D -- in rats receiving the same hyperlipidic diet B with a daily dose of 0.1 g/kg of a reference normolipidemiant ATHEROLIP [aluminium salt of 2-(p-chlorophenoxy)-2-methylpropionic acid];
E -- in rats receiving the same hyperlipidic diet B with a daily dose of 0.1 g/kg of a reference normolipidemiant, LL 1558 [1,10-bis(2-hydroxyethyl-thio)decane];
F -- in rats receiving the same hyperlipidic diet B with a daily dose 0.010 g/kg, 0.025 g/kg or 0.050 g/kg of CRL 40046.
The averages of the tests effected on CRL 40 055 in three different doses and calculated comparatively to reference products corresponding to various experiments allow an activity of the product to be concluded as follows: […]

[6] = total dose of 400 mg per day, capsules of 100 mg and 200 mg
[7] = first experiment, hyperlipidic diet + product 0,1g/kg daily
[8] = first experiment, hyperlipidic diet + product 0,050g/kg daily
[9] = second experiment, hyperlipidic diet + product 0,025g/kg daily
[10] = third experiment, hyperlipidic diet + product "010g/kg" daily
[11] = second experiment, hyperlipidic diet + product 0,1g/kg daily
[12] = third experiment, hyperlipidic diet + product 0,1g/kg daily

CC(CO)SCCCCCCCCCCSC(C)CO (racemic) [CRL 40 122, (±)-2,15-Dimethyl-3,14-dithia-1,16-hexadecanediol]
toxicity (in words) (mice; acute oral, mice and rats): not toxic
mortality (mice; oral, mice, up to a dose of 5 g/kg): no mortality
use in human therapeutics (in words) ([1]; capsules dosed at 100 mg and at 200 mg): used with success
hypercholesterolaemia [1, 6]: decrease after several days of treatment
hyperlipaemia [1, 6]: decrease after several days of treatment
solubility in water [2]: insoluble
decrease in cholesterol [3]: 23%
decrease in total lipids [3]: 31%
appearance of activity (onset) [4]: after the third day of treatment
product activity ([4]; dose of 10 mg/kg): ~20%
product activity ([4]; dose of 20 mg/kg): ~30%
product activity ([4]; dose of 50 mg/kg): ~60%
mortality (rats): no mortality

CC(C)(Oc1ccc(Cl)cc1)C(=O)O [Atherolip, aluminium salt of 2-(p-chlorophenoxy)-2-methylpropionic acid]
Total Cholesterol [5, 7]: 2.08 g/L
Total Lipids [5, 7]: 6.8 g/L
Burstein Test, % inhibition [5, 7]: 67%
Total Cholesterol, % inhibition [5, 7]: 59%
Total Lipids, % inhibition [5, 7]: 49%

CC(C)(CO)SCCCCCCCCCCSC(C)(C)CO [CRL 40 055, 2,2,15,15-Tetramethyl-3,14-dithia-1,16-hexadecanediol]
solubility in water [2]: insoluble
Burstein Test [5, 8]: 64
Total Cholesterol [5, 8]: 2.29 g/L
Total Lipids [5, 8]: 7.45 g/L
Burstein Test, % inhibition [5, 8]: 58%
Total Cholesterol, % inhibition [5, 8]: 51%
Total Lipids, % inhibition [5, 8]: 41%
Burstein Test [5, 9]: 82
Total Cholesterol [5, 9]: 2.43 g/L
Total Lipids [5, 9]: 8.06 g/L
Burstein Test, % inhibition [5, 9]: 30%
Total Cholesterol, % inhibition [5, 9]: 53%
Total Lipids, % inhibition [5, 9]: 37%
Total Cholesterol [5, 10]: 3.81 g/L
Total Lipids [5, 10]: 11.3 g/L
Burstein Test, % inhibition [5, 10]: 0%
Total Cholesterol, % inhibition [5, 10]: 0%
Total Lipids, % inhibition [5, 10]: 0%
activity (in words) ([5]; dose of 0.010 g/kg): the activity appears to have completely disappeared
activity as compared with the reference products (in words) ([5]; dose of 0.025 g/kg vs reference products at 0.1 g/kg): substantially constant activity as compared with the reference products

OCCSCCCCCCCCSCCO [CRL 40 077, 1,8-Bis(2-hydroxyethyl-thio)-octane]
solubility in alcohol [2]: soluble
solubility in water [2]: insoluble

OCCSCCCCCCSCCO [CRL 40 085, 1,6-Bis(2-hydroxyethyl-thio)-hexane]
solubility in alcohol [2]: soluble
solubility in water [2]: insoluble

OCCSCCCCCCCCCSCCO [CRL 40 116, 1,9Bis(2-hydroxyethylthio)-nonane]
solubility in alcohol [2]: soluble
solubility in water [2]: insoluble

OCCSCCCCCCCSCCO [CRL 40 120, 1,7-Bis(2-hydroxyethyl-thio)-heptane]
solubility in alcohol [2]: soluble
solubility in water [2]: insoluble

OCC(O)CSCCCCCCCCCCSCC(O)CO (centres unmarked) [CRL 40 155, 1,10-Bis(2,3-dihydroxypropyl-thio)decan]
solubility in water [2]: insoluble

OCCC(CO)SCCCCCCCCCCSC(CO)CCO (centres unmarked) [CRL 40 176, 1,18-Dihydroxy-3,16-di(hydroxymethylene)-4,15-dithia-octadecane]
solubility in water [2]: insoluble

CC(CO)SCCCCCCCCCSC(C)CO (centres unmarked) [CRL 40 193, 2,14-Dimethyl-3,13-dithia-1,15-pentadecanediol]
solubility in water [2]: insoluble

OCCSCCCCCCCCCCCSCCO [CRL 40 194, 1,11-Bis-(2-hydroxyethyl-thio)-undecane]
solubility in water [2]: insoluble

OCCSCCCCCCCCCCSCCO [LL 1558, 1,10-bis(2-hydroxyethyl-thio)decane]
Burstein Test [5, 11]: 38
Total Cholesterol [5, 11]: 1.33 g/L
Total Lipids [5, 11]: 5.1 g/L
Burstein Test, % inhibition [5, 11]: 87%
Total Cholesterol, % inhibition [5, 11]: 85%
Total Lipids, % inhibition [5, 11]: 82%
Burstein Test [5, 12]: 37
Total Cholesterol [5, 12]: 1.33 g/L
Total Lipids [5, 12]: 4.5 g/L
Burstein Test, % inhibition [5, 12]: 85%
Total Cholesterol, % inhibition [5, 12]: 70%
Total Lipids, % inhibition [5, 12]: 77%

CCOC(=O)C(C)(C)Oc1ccc(Cl)cc1 [Lipavlon, ethyl-2-(p-chlorophenoxy)-2-methylpropionate]
Total Cholesterol [5, 7]: 2.47 g/L
Total Lipids [5, 7]: 7.75 g/L
Burstein Test, % inhibition [5, 7]: 49%
Total Cholesterol, % inhibition [5, 7]: 46%
Total Lipids, % inhibition [5, 7]: 37%
Total Cholesterol [5, 11]: 3 g/L
Total Lipids [5, 11]: 9.2 g/L
Burstein Test, % inhibition [5, 11]: 27%
Total Cholesterol, % inhibition [5, 11]: 36%
Total Lipids, % inhibition [5, 11]: 20%
Total Cholesterol [5, 12]: 1.58 g/L
Total Lipids [5, 12]: 7.3 g/L
Burstein Test, % inhibition [5, 12]: 25%
Total Cholesterol, % inhibition [5, 12]: 60%
Total Lipids, % inhibition [5, 12]: 22%
